We go through ten molecules from ChEMBL document CHEMBL5029197, “Synthesis and Metabolism of BTN3A1 Ligands: Studies on Diene Modifications to the Phosphoantigen Scaffold” (ACS Med Chem Lett, 2022).

The structures appear in SMILES notation. Activity calls are given as the source filed them. The rule behind the calls is not given here. Where only a bound is given, the exact number is not on record here.

Series [1] can be described thus: (§1) Induction of IFN-gamma production in human Vgamma9Vdelta2-T cells incubated for 4 mins with compound-loaded K562 cells followed by compound washout and measured after 20 hrs by ELISA. The settings on record: Vgamma9Vdelta2 T cell. In kind it is functional, cell-based. (In general: In an ELISA, binding on a coated surface is turned into a signal by an enzyme label.)

Series [2] can be described thus: (§2) Induction of cell proliferation in human Vgamma9Vdelta2-T cells stimulated with human PBMC for 3 days followed by compound washout and supplemented with IL2 every 3 days for 11 days by flow cytometry analysis. In kind it is functional, cell-based.
Series [3] is described as follows: Stability of compound in human plasma assessed as parent compound remaining at 100 uM measured after 2 hrs by LC-MS analysis. It counts as ADME, cell-free. The following applies: for Stability: 2 h, 100 µM; for remaining at 2 h, 100 µM: read-out: Stability.
The nature of series [4]: (§3) Induction of IFN-gamma production in human Vgamma9Vdelta2-T cells incubated for 240 mins with compound-loaded K562 cells followed by compound washout and measured after 20 hrs by ELISA. The following applies: Vgamma9Vdelta2 T cell. It counts as functional, cell-based.
Series [5] in a line: Stability of compound in human plasma assessed as parent compound remaining at 100 uM measured after 24 hrs by LC-MS analysis. It counts as ADME, cell-free. The following applies: for Stability: 24 h, 100 µM; for remaining at 24 h, 100 µM: read-out: Stability.
The test system of series [6] is K562. Kind of series: Cytotoxicity against human K562 cells assessed as reduction in cell viability measured after 72 hrs by colorimetric assay. In kind it is cell-based. The settings on record: k562, 72 h.
Series [7] can be described thus: (§4) Induction of IFN-gamma production in human Vgamma9Vdelta2-T cells incubated for 15 mins with compound-loaded K562 cells followed by compound washout and measured after 20 hrs by ELISA. It counts as functional, cell-based. The settings on record: Vgamma9Vdelta2 T cell.
A short description of series [8]: Drug metabolism in human K562 cells assessed as free phosphonic diacid metabolite formation at 100 uM incubated for 1 hr by LC-MS analysis. It counts as ADME, cell-based. The settings on record: k562, 1 h.
The nature of series [9]: (§5) Induction of IFN-gamma production in human Vgamma9Vdelta2-T cells incubated for 60 mins with compound-loaded K562 cells followed by compound washout and measured after 20 hrs by ELISA. The following applies: Vgamma9Vdelta2 T cell. It counts as functional, cell-based.
Series [10] has as its target Butyrophilin subfamily 3 member A1 (Homo sapiens) (UniProt O00481). Kind of series: Displacement of GDP-BODIPY probe from BTN3A1 full intracellular domain (unknown origin) at […] measured after 60 mins by fluorescence polarization assay. For orientation: In fluorescence polarisation assays a small probe gives low polarisation when free and higher when bound to something large.

A short description of series [11]: Drug metabolism in human K562 cells assessed as monoacid methyl ester metabolite formation at 100 uM incubated for 1 hr by LC-MS analysis. It counts as ADME, cell-based. The following applies: k562, 1 h.
For series [12], the system named is Vgamma9Vdelta2-T cell. Described as §1. It counts as functional, cell-based.
Series [13] has as its system Vgamma9Vdelta2-T cell. The description is as §2. It counts as functional, cell-based. The following applies: time 3.0 day.
The test system of series [14] is Vgamma9Vdelta2-T cell. The description is as §3. In kind it is functional, cell-based.
For series [15], the system named is Vgamma9Vdelta2-T cell. Described as §4. It counts as functional, cell-based.
Series [16] has as its system Vgamma9Vdelta2-T cell. The series is described as §5. In kind it is functional, cell-based.

Butyrophilin subfamily 3 member A1 (Homo sapiens), sequence (O00481 30-513 limits assumed): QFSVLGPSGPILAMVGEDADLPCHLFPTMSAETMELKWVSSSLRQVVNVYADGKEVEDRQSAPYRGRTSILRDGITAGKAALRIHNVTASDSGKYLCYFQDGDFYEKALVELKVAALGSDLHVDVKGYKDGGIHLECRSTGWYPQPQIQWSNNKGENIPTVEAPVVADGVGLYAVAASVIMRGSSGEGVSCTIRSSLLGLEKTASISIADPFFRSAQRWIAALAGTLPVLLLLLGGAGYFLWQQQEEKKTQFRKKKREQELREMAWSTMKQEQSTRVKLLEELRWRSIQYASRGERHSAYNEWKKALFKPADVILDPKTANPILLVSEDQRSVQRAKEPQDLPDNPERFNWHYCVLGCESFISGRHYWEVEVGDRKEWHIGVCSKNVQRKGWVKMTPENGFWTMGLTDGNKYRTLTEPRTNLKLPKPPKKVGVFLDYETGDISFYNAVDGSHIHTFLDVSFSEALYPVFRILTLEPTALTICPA

Consider `CC(=O)OC/C(C)=C/C=C/P(=O)(OCOC(=O)C(C)(C)C)OCOC(=O)C(C)(C)C`, for which the 50% effective concentration (EC50) (in general, the concentration that produces a half-maximal response) in series [1] is > 100 µM; in series [2] it was 60 µM; in series [4], 38 µM; in series [7], > 100 µM; in series [9], > 100 µM. In addition, the Stability entry in series [3] and in [5] was “Unstable” throughout. The Activity in series [6] is > 100 µM. In [8], the Drug metabolism entry is “Metabolite_Detected”.

For the molecule `COC(=O)[C@H](C)NP(=O)(/C=C/C=C(C)C)Oc1ccccc1` (some centres not stated), the half-maximal effective concentration (EC50) in series [1] was > 100 µM; in series [2] it was 11 µM; in series [4] it was 75 µM; in series [7], > 100 µM; in series [9], > 100 µM. Besides, in [3], the remaining at 2 h, 100 µM amounted to 69%. Besides, in series [5], the remaining at 24 h, 100 µM came out at 63%. The Activity in series [6] was > 100 µM. In addition, the Drug metabolism entry in [8] is “Metabolite_Detected”.

With `CC(C)=C/C=C/P(=O)([O-])[O-].[Na+].[Na+]`, the result in [10] was Active. The EC50 in [2] is > 100 µM. The Activity in [6] is > 100 µM.

In the case of `CC(C)=C/C=C/P(=O)(OCOC(=O)C(C)(C)C)OCOC(=O)C(C)(C)C`, the EC50 in series [1] was > 100 µM; in series [2], 0.29 µM; in series [4], 18 µM; in [7], > 100 µM; in series [9], 52 µM. For the same molecule, the remaining at 2 h, 100 µM in series [3] is 6%. Also, in [5], the Stability entry is reported as “Unstable”. In [6], the Activity is > 100 µM. The Drug metabolism result in [8] is recorded as “Metabolite_Detected”.

Regarding `COP(=O)(/C=C/C=C(C)C)OCOC(=O)C(C)(C)C` (configuration not stated), the EC50 in series [1] was > 100 µM; in series [2] it was 0.13 µM; in series [4], 11 µM; in [7], 98 µM; in [9] it was 37 µM. In [3], the remaining at 2 h, 100 µM was determined as 62%. The remaining at 24 h, 100 µM in [5] is 4%. For the same molecule, the Activity in [6] came to 20 µM. For the same molecule, the Drug metabolism entry in series [11] is “Metabolite_Detected”.

Turning to `C/C(=C\CCP(=O)(OCOC(=O)C(C)(C)C)OCOC(=O)C(C)(C)C)CO`, the Stability entry in [3] and in [5] was “Unstable” each time. In addition, the EC50 came to 0.024 µM in [4], 0.043 µM in [7] and 0.03 µM in series [9]. In series [6], the Activity was > 100 µM.

As to `CC(C)=C/C=C/P(=O)(OCOC(=O)C(C)(C)C)Oc1ccccc1` (configuration not stated), the EC50 in [1] was > 100 µM; in [2], 0.75 µM; in series [4] it was 9.1 µM; in series [7], > 100 µM; in [9] it was 29 µM. Further, the remaining at 2 h, 100 µM in [3] is 48%. Besides, the remaining at 24 h, 100 µM in series [5] worked out at 16%. Besides, the Activity in series [6] came out at 100 µM. In [8], the Drug metabolism entry is recorded as “Metabolite_Detected”.

As for `C/C(=C\C=C\P(=O)(O)O)CO`, the result in series [10] was Active. Besides, the EC50 in [2] was 15 µM. Also, the Activity in series [6] is > 100 µM.

As to `C/C(=C\CCP(=O)(O)O)CO`, in series [10], the outcome was inactive.

As for `CC(C)=C/C=C/P(=O)(Oc1ccccc1)Oc1ccccc1`, the outcome in [12], in series [13], in series [14], in series [15] and in [16] was inactive. Besides, the remaining at 2 h, 100 µM in series [3] was 89%. In series [5], the remaining at 24 h, 100 µM was 73%. For the same molecule, in [6], the Activity was > 100 µM. Besides, the Drug metabolism result in [11] is on record as “Metabolite_Notdetected”.
